What was measured:
Solubility in water = format: physicochemical
From the text: (§1) The psilocybin of the invention in the form Polymorph A or A′ has the general properties illustrated in Table 5 below: […]

Hygroscopicity = format: physicochemical; settings: high humidity / added to water
From the text: as §1

[1] = ICH stability study of psilocybin batches (appearance, water content, purity, assay); settings: 2-8° C., 25° C./60% RH and 40° C./75% RH
[2] = Heat cycling slurry maturation of Psilocybin Pattern A in 24 solvents (visual solubility)
[3] = Heat cycling slurry maturation of amorphous Psilocybin (visual solubility, form fate); format: physicochemical; settings: for Obs. at 20° C. / Obs. at 45° C. / Obs. at 50° C.: 20 vol.; for Obs. at 45° C.: 45° C. for 18 hours; for Obs. at 50° C.: 50° C. for 8 hours; for XRPD Data (form fate): solid isolated after heat cycling slurry maturation
Protocol: In order to generate amorphous material a small sample of Psilocybin (0.5 g) was dissolved in water (0.5 L, 1000 vol.), polish filtered and lyophilised. Psilocybin was recovered as an off white fibrous material (lot MC1368A; 412 mg, 82%, XRPD amorphous).
To assess visually solubility of the amorphous API and to induce form modification, a series of slurry maturations were performed as follows:
Psilocybin (15 mg) was charged to tubes. Solvent was then added at ambient temperature (20° C., 0.3 ml, 20 vol.) and the suspensions agitated. Observations were made. After 1 hour of stirring, samples were heated to 45° C. for 18 hours and observations made. Samples were heated to 50° C. for 8 hours and observations were made. The samples were agitated for 72 hours at 25° C. and subject to a final heat cycle, prior to isolation.

Compound: CN(C)CCc1c[nH]c2cccc(OP(=O)(O)O)c12 [Psilocybin, 3-[2-(dimethylazaniumyl) Ethyl]-1H-indol-4-yl Hydrogen Phosphate]
- solubility (Solubility in water): ~15 mg/mL
- Hygroscopicity (Hygroscopicity): Psilocybin forms Hydrate A at high
- chemical stability over the first 12 months of the ICH stability study [1]: chemically stable
- solubility in the solvents and solvent mixtures tested ([2]; 30 volumes at 50° C.): largely insoluble
- solubility in water ([2]; Water, 50° C.): did solubilise

Compound: CN(C)CCc1c[nH]c2cccc(OP(=O)(O)O)c12 [amorphous Psilocybin]
- Obs. at 20° C. ([3]; 4:1 EtOH/water): Susp.
- Obs. at 45° C. ([3]; 4:1 EtOH/water): Susp.
- Obs. at 50° C. ([3]; 4:1 EtOH/water): Susp.
- Obs. at 20° C. ([3]; 4:1 IPA/water): Susp.
- Obs. at 45° C. ([3]; 4:1 IPA/water): Susp.
- Obs. at 50° C. ([3]; 4:1 IPA/water): Susp.
- Obs. at 20° C. ([3]; 4:1 THF/water): Susp.
- Obs. at 45° C. ([3]; 4:1 THF/water): Susp.
- Obs. at 50° C. ([3]; 4:1 THF/water): Susp.
- Obs. at 20° C. ([3]; Acetonitrile): Susp.
- Obs. at 45° C. ([3]; Acetonitrile): Susp.
- Obs. at 50° C. ([3]; Acetonitrile): Susp.
- XRPD Data (form fate) ([3]; Acetonitrile): Amorphous
- Obs. at 20° C. ([3]; Anisole): Susp.
- Obs. at 45° C. ([3]; Anisole): Susp.
- Obs. at 50° C. ([3]; Anisole): Susp.
- XRPD Data (form fate) ([3]; Anisole): Semi-crystalline
- Obs. at 20° C. ([3]; Benzotrifluoride): Susp.
- Obs. at 45° C. ([3]; Benzotrifluoride): Susp.
- Obs. at 50° C. ([3]; Benzotrifluoride): Susp.
- XRPD Data (form fate) ([3]; Benzotrifluoride): Semi-crystalline
- Obs. at 20° C. ([3]; CPME): Susp.
- Obs. at 45° C. ([3]; CPME): Susp.
- Obs. at 50° C. ([3]; CPME): Susp.
- XRPD Data (form fate) ([3]; CPME): Semi-crystalline
- Obs. at 20° C. ([3]; Chlorobenzene): Susp.
- Obs. at 45° C. ([3]; Chlorobenzene): Susp.
- Obs. at 50° C. ([3]; Chlorobenzene): Susp.
- XRPD Data (form fate) ([3]; Chlorobenzene): Semi-crystalline
- Obs. at 20° C. ([3]; Chlorobutane): Susp.
- Obs. at 45° C. ([3]; Chlorobutane): Susp.
- Obs. at 50° C. ([3]; Chlorobutane): Susp.
- XRPD Data (form fate) ([3]; Chlorobutane): Pattern B
- Obs. at 20° C. ([3]; Chloroform): Susp.
- Obs. at 45° C. ([3]; Chloroform): Susp.
- Obs. at 50° C. ([3]; Chloroform): Susp.
- Obs. at 20° C. ([3]; Cyclohexane): Susp.
- Obs. at 45° C. ([3]; Cyclohexane): Susp.
- Obs. at 50° C. ([3]; Cyclohexane): Susp.
- XRPD Data (form fate) ([3]; Cyclohexane): Semi-crystalline
- Obs. at 20° C. ([3]; EtOAc): Susp.
- Obs. at 45° C. ([3]; EtOAc): Susp.
- Obs. at 50° C. ([3]; EtOAc): Susp.
- XRPD Data (form fate) ([3]; EtOAc): Semi-crystalline
- Obs. at 20° C. ([3]; EtOH): Susp.
- Obs. at 45° C. ([3]; EtOH): Susp.
- Obs. at 50° C. ([3]; EtOH): Susp.
- XRPD Data (form fate) ([3]; EtOH): Pattern D
- Obs. at 20° C. ([3]; Heptane): Susp.
- Obs. at 45° C. ([3]; Heptane): Susp.
- Obs. at 50° C. ([3]; Heptane): Susp.
- XRPD Data (form fate) ([3]; Heptane): Semi-crystalline
- Obs. at 20° C. ([3]; IPA): Susp.
- Obs. at 45° C. ([3]; IPA): Susp.
- Obs. at 50° C. ([3]; IPA): Susp.
- XRPD Data (form fate) ([3]; IPA): Pattern B
- Obs. at 20° C. ([3]; MEK): Susp.
- Obs. at 45° C. ([3]; MEK): Susp.
- Obs. at 50° C. ([3]; MEK): Susp.
- XRPD Data (form fate) ([3]; MEK): Semi-crystalline
- Obs. at 20° C. ([3]; MIBK): Susp.
- Obs. at 45° C. ([3]; MIBK): Susp.
- Obs. at 50° C. ([3]; MIBK): Susp.
- XRPD Data (form fate) ([3]; MIBK): Semi-crystalline
- Obs. at 20° C. ([3]; MeOH): Susp.
- Obs. at 45° C. ([3]; MeOH): Susp.
- Obs. at 50° C. ([3]; MeOH): Susp.
- XRPD Data (form fate) ([3]; MeOH): Semi-crystalline
- Obs. at 20° C. ([3]; Nitromethane): Susp.
- Obs. at 45° C. ([3]; Nitromethane): Susp.
- Obs. at 50° C. ([3]; Nitromethane): Susp.
- XRPD Data (form fate) ([3]; Nitromethane): Pattern B
- Obs. at 20° C. ([3]; TBME): Susp
- Obs. at 45° C. ([3]; TBME): Susp.
- Obs. at 50° C. ([3]; TBME): Susp.
- XRPD Data (form fate) ([3]; TBME): Semi-crystalline
- Obs. at 20° C. ([3]; THF): Susp.
- Obs. at 45° C. ([3]; THF): Susp.
- Obs. at 50° C. ([3]; THF): Susp.
- XRPD Data (form fate) ([3]; THF): Semi-crystalline
- Obs. at 20° C. ([3]; Toluene): Susp.
- Obs. at 45° C. ([3]; Toluene): Susp.
- Obs. at 50° C. ([3]; Toluene): Susp.
- Obs. at 20° C. ([3]; Water): Susp.
- Obs. at 45° C. ([3]; Water): Susp.
- Obs. at 50° C. ([3]; Water): Susp.
- Obs. at 20° C. ([3]; iPrOAc): Susp.
- Obs. at 45° C. ([3]; iPrOAc): Susp.
- Obs. at 50° C. ([3]; iPrOAc): Susp.
- XRPD Data (form fate) ([3]; iPrOAc): Semi-crystalline

— patent publication US12662498B2 (priority 2017, dated 2026)
